Source: patent US10781224B2, “Bis(oxymethyl)phosphinic acid and biogenic metal salts thereof as regulators of plant growth and development” (priority 2016, dated 2020)

Tested on: winter wheat (Vershin variety)
Assay: Winter wheat seed treatment with BHMPA salts: germinating power (length and mass of roots and sprouts)
Assay type: in vivo
Description: Experimental versions—soaking seeds in BHMPA solutions and solutions of BHMPA Ca, Mg, Na, Co, Mn, Cu, and Zn salts at 1·10^−6-1·10^−12% concentrations (doses). The studies were conducted in laboratory in Petri dishes; seed bed—two layers of filter paper. 50 seeds soaked in water (control) and in the solutions of the tested compounds (experimental) were placed into each dish. Wheat, corn, and rice seeds were exposed for one hour.
Seed germination energy and rate were calculated in percent as an arithmetic mean of the four experimental results (germination energy on the 4th day, wheat germination on the 8th day, rice and corn germination—on the 7th day). Germination was determined based on the germinating power indicators (length of the roots and sprouts and their wet and dry mass per 100 shoots).
The effect of pre-sowing seed treatment with the claimed BHMPA salts of biogenic metals was studied on winter wheat (Vershin variety), corn (Krasnodar 385 MV variety), and rice (Diamant variety).
The above data describe the seed viability only at the initial stage of germination, while the germination ability at the later stage of germination is defined by the initial germinating power. The method for the determination of the germinating power comprises measuring the height of the sprouts and primary roots, as well as the biomass and the dry mass thereof per 100 seedlings. [M. A. Kartuzova. Initial Germinating Power as Method of Biological Assessment of Seed Quality. Selection and Seed Farming, #2, 1953].

[1] = all the experiments (1·10^−6% to 1·10^−12%)
[2] = comparative study, 1·10^−12% solution

## O=P([O-])(CO)CO.O=P([O-])(CO)CO.[Ca+2] [Ca-salt, Calcium BHMPA Salt]
1·10^−6% solution
  Length, root: 7.1 cm
  Length, root, + % to control: 27%
  Length, sprout: 6.9 cm
  Length, sprout, + % to control: 19%
  Mass, dry, root: 0.45 g/100 plantlings
  Mass, dry, root, + % to control: 41%
  Mass, dry, sprout: 0.47 g/100 plantlings
  Mass, dry, sprout, + % to control: 9%
  Mass, wet, root: 4.16 g/100 plantlings
  Mass, wet, root, + % to control: 12%
  Mass, wet, sprout: 5.32 g/100 plantlings
  Mass, wet, sprout, + % to control: 5%
1·10^−7% solution
  Length, root: 7.4 cm
  Length, root, + % to control: 34%
  Length, sprout: 7.4 cm
  Mass, dry, root: 0.47 g/100 plantlings
  Mass, dry, root, + % to control: 47%
  Mass, dry, sprout: 0.55 g/100 plantlings
  Mass, dry, sprout, + % to control: 30%
  Mass, wet, root: 4.89 g/100 plantlings
  Mass, wet, root, + % to control: 32%
  Mass, wet, sprout: 5.57 g/100 plantlings
  Mass, wet, sprout, + % to control: 10%
1·10^−8% solution
  Length, root: 6.5 cm
  Length, root, + % to control: 18%
  Length, sprout: 6.4 cm
  Length, sprout, + % to control: 10%
  Mass, dry, root: 0.39 g/100 plantlings
  Mass, dry, root, + % to control: 22%
  Mass, dry, sprout: 0.45 g/100 plantlings
  Mass, dry, sprout, + % to control: 5%
  Mass, wet, root: 4.08 g/100 plantlings
  Mass, wet, root, + % to control: 10%
  Mass, wet, sprout: 5.32 g/100 plantlings
  Mass, wet, sprout, + % to control: 5%
1·10^−9% solution
  Length, root: 6.5 cm
  Length, root, + % to control: 18%
  Length, sprout: 6.5 cm
  Length, sprout, + % to control: 12%
  Mass, dry, root: 0.41 g/100 plantlings
  Mass, dry, root, + % to control: 28%
  Mass, dry, sprout: 0.48 g/100 plantlings
  Mass, dry, sprout, + % to control: 12%
  Mass, wet, root: 4.20 g/100 plantlings
  Mass, wet, root, + % to control: 13%
  Mass, wet, sprout: 5.36 g/100 plantlings
  Mass, wet, sprout, + % to control: 5.5%
1·10^−10% solution
  Length, root: 6.6 cm
  Length, root, + % to control: 20%
  Length, sprout: 6.5 cm
  Length, sprout, + % to control: 12%
  Mass, dry, root: 0.45 g/100 plantlings
  Mass, dry, root, + % to control: 41%
  Mass, dry, sprout: 0.53 g/100 plantlings
  Mass, dry, sprout, + % to control: 23%
  Mass, wet, root: 4.34 g/100 plantlings
  Mass, wet, root, + % to control: 17%
  Mass, wet, sprout: 5.41 g/100 plantlings
  Mass, wet, sprout, + % to control: 6.5%
1·10^−11% solution
  Length, root: 7.2 cm
  Length, root, + % to control: 31%
  Length, sprout: 6.9 cm
  Length, sprout, + % to control: 19%
  Mass, dry, root: 0.46 g/100 plantlings
  Mass, dry, root, + % to control: 44%
  Mass, dry, sprout: 0.54 g/100 plantlings
  Mass, dry, sprout, + % to control: 25.5%
  Mass, wet, root: 4.70 g/100 plantlings
  Mass, wet, root, + % to control: 27%
  Mass, wet, sprout: 5.50 g/100 plantlings
  Mass, wet, sprout, + % to control: 8%
1·10^−12% solution
  Length, root: 7.4 cm
  Length, root, + % to control: 34%
  Length, sprout: 7.9 cm
  Length, sprout, + % to control: 36%
  Mass, dry, root: 0.48 g/100 plantlings
  Mass, dry, root, + % to control: 50%
  Mass, dry, sprout: 0.59 g/100 plantlings
  Mass, dry, sprout, + % to control: 37%
  Mass, wet, root: 5.19 g/100 plantlings
  Mass, wet, root, + % to control: 40%
  Mass, wet, sprout: 6.55 g/100 plantlings
  Mass, wet, sprout, + % to control: 29%
[1]
  increase in mass of sprouts: 5%-50%
  increase in size of sprouts: 10%-36%
[2]
  Length, root: 9.7 cm
  Length, root, + % to control: 11%
  Length, sprout: 6.4 cm
  Length, sprout, + % to control: 3%
  Mass, dry, root: 0.66 g/100 plantlings
  Mass, dry, root, + % to control: 6%
  Mass, dry, sprout: 0.54 g/100 plantlings
  Mass, dry, sprout, + % to control: 6%
  Mass, wet, root: 5.03 g/100 plantlings
  Mass, wet, root, + % to control: 40%
  Mass, wet, sprout: 4.88 g/100 plantlings
  Mass, wet, sprout, + % to control: 23%
